In patent US8871794B2, “Small-molecule agonists for type-2 orexin receptor” (Board of Regents, The University of Texas System, priority 2008, dated 2014):
Like-named read-outs stand apart in the source and are kept apart here.

What was measured:
[1] = IV pharmacokinetics in C57BL/6 mice (plasma and brain); type: in vivo, mouse; details: for Kp: brain/plasma, 10 mg/kg; for half-life: read-out: Terminal half life
Experimental: Pharmacokinetics: Methods: Chembridge Compound 6037874 (“Yan7874”) was provided as a powdered stock and dissolved in DMSO at 50 mg/ml. The compound was formulated as 5% DMSO/5% Cremaphor EL/90% 5% dextrose, pH 7.2 such that compound could be administered to mice at 10-20 mg/kg in a volume of 0.2 ml by IV bolus.
The mice were sacrificed in groups of three by inhalation overdose of CO2 and blood and brain obtained. Plasma was subsequently isolated from the […] by centrifugation in a refrigerated microcentrifuge at 10,000 rpm for 10′. The brain was washed extensively with PBS, blotted dry, weighed, and snap frozen in liquid nitrogen.
An analytical method was developed to detect Yan7874 using LC/MS/MS.
A standard curve was developed in plasma in the following manner. 100 μl of plasma is spiked with varying concentrations of Yan7874. The plasma is allowed to sit 10′ at room temperature after vortexing. 200 μl of acetonitrile is added to precipitate plasma proteins and release bound drug. After vortexing, the sample is incubated 10′ at room temperature. 700 μl of PBS is added and the sample is centrifuged at 14,000 rpm in a standard microcentrifuge for 5′. 900 μl of supernatant is added to 1 ml of PBS. The entire sample is passed over a Waters OASIS HLB solid phased extraction column already primed by addition of 2 ml methanol and 2 ml H2O. The column is washed once with 2 ml of 5% methanol/2% NH4OH in H2O and once with 2 ml of 5% methanol/2% acetic acid in H2O and compound is eluted by addition of 2 ml of methanol containing 2% NH4OH. 500 μl of this is added to 500 μl of H2O containing 0.2% formic acid (final formic acid 0.1%). Samples are prepared in the same manner without addition of spiked compound. Brain tissue is prepared by homogenizing in 3× volume of PBS (weight in grams×3=volume in ml to add). 100 μl of blank brain lysate is used for preparation of standard curve samples while 100 μl of sample brain lysate is used for preparation of samples. To calculate brain levels, the concentration in ng/ml calculated from the standard curve is multiplied by the total volume of lysate (a value in ml estimated from the 3× volume of PBS added +1× volume to account for brain tissue itself) and then divided by the weight of the brain in grams. A value of 3× above the signal obtained from blank plasma or brain lysate is designated the limit of detection (LOD). The LOD for plasma is 2640 and for brain 459. The limit of quantitation (LOQ) is the lowest concentration at which back calculation yields a concentration within 20% of theoretical. The LOQ for both plasma and brain is 5 ng/ml. In general back calculation of points on both curves yielded values within 20% of theoretical over 4 orders of magnitude (10,000 to 5 ng/ml) for both sample types.

[2] = Metabolism in mouse CD-1 S9 fractions (phase I, phase I+II); type: in vitro ADME; details: for half-life at 2 μM: CD-1, mouse, S9 fractions (hepatocyte S9)
Experimental: Metabolism: 2 μM Yan7874 was incubated in 1 ml 0.1 M Tris/0.5% NaHCO3/3 mm MgCl2 solution with 1 mg mouse CD-1 S9 protein (In Vitro Technologies, Baltimore, Md.) at 37° C. Cofactors necessary for phase I and II metabolism were added as recommended by In Vitro Technologies (phase I: 1.7 mg/ml NADP, 7.8 mg/ml glucose-6-phophate, 6 U/ml glucose-6-phosphate dehydrogenase; phase II additionally add 1.9 mg/ml uridine 5′-diphospho-α-D-glucuronic acid and 100 μg/ml 3′-phosphoadenosine-5′-phophosulphate). Protein was precipitated by the addition of 1 volume of methanol. Samples in 50:50 buffer:methanol+0.1% added formic acid were analyzed as follows. An analytical method was developed to detect Yan7874 using LC/MS/MS. […] The fraction of parent compound remaining was plotted over time and a curve fit to the data. The time at which 50% of compound remains is designated the in vitro half-life.

GRP receptor = biological target: T1, GRP receptor (Homo sapiens, UniProt P30550); experiment: Intracellular Calcium Transient Assay in CHO cells expressing control GRP receptor; type: cell-based; details: cells expressing an unrelated Gq-coupled GPCR (GRP receptor)
T1 construct: Open reading frames of OX1R, OX2R and GRP (control) receptor were inserted into a bicistronic retrovirus expression vector; expressed in transfected cells; host or cells: CHO cells harboring ecotropic retroviral receptor, infected with retrovirus and selected with puromycin
T1 sequence (P30550 whole entry): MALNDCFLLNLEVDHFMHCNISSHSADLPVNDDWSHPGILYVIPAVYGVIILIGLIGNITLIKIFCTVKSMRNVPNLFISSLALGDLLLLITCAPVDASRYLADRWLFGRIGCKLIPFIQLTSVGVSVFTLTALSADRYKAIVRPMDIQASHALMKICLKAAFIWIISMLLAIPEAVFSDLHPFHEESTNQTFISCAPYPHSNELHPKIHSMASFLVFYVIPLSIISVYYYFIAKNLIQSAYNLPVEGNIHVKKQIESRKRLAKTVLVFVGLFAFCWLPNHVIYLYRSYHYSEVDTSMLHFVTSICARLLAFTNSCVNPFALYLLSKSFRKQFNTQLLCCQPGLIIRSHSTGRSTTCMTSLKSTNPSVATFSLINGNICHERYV
Experimental: DNA Construction: Open reading frames of OX1R, OX2R and GRP (control) receptor were inserted into a bicistronic retrovirus expression vector, pMXs-IRES-puror (pMXs-IP), which carried a FLAG™ epitope cDNA sequence at the beginning of the ORF sequences encoding their human polypeptides.
Transfection and retrovirus production: Transfection was carried out using FuGENE 6 (Roche Diagnostics Corp.) according to the manufacturer's recommendations. Retroviruse fluid was harvested after 48 hours post transfection.
Cell lines: To generate receptor expressing cells, CHO cells harboring ecotropic retroviral receptor were infected with a retroviral supernatant. After 24 hours post infection, the retrovirus supernatant was removed and infected cells were selected with 10 μg/ml of puromycin (Sigma-Aldrich, St. Louis, Mo.). […]
0.5 ml aliquot of the cell suspension was stimulated by addition of 5 μl of compound dissolved in DMSO. Changes of [Ca^2+]i transients in cells were measured at RT by using CAF-110 Intracellular Ion Analyser (JASCO, Tokyo) with the excitation wave lengths of 340 nm and 380 nm and emission wavelength of 500 nm

[3] = male, C57BL/6, mouse, IV 10 mg/kg, brain
[4] = male, C57BL/6, mouse, IV 10 mg/kg, plasma

- acute reaction after injection ([1]; 10 mg/kg IV): no acute reactions were noted
- time after dosing at which peak brain levels achieved ([1]; 10 mg/kg iv): 30 min
- peak levels in brain tissue ([1]; 10 mg/kg iv, 30 minutes after dosing): ~2.5 µg/g
- brain penetration ([1]; 10 mg/kg iv, mice): good brain penetration
- AUC ([1]; IV 10 mg/kg, brain): 485,627 min*ng/g
- Clearance ([1]; IV 10 mg/kg, brain): 0.4 g/min
- Kp ([1]; male, C57BL/6, mouse, intravenous, 10 mg/kg iv, read-out: peak brain concentrations relative to peak levels in plasma): ~5
- Kp ([1]; male, C57BL/6, mouse, iv, IV 10 mg/kg, read-out: Blood Brain Penetration Ratio: AUC brain/AUC plasma): 5.2
- Kp ([1]; male, C57BL/6, mouse, iv, IV 10 mg/kg, read-out: Blood Brain Penetration Ratio: Cmax brain/Cmax plasma): 4.8
- concentration at 24 h ([1]; male, C57BL/6, mouse, brain, 10 mg/kg iv, 24 hours, read-out: brain levels persisting at 24 hours post-injection): 5 ng/g
- Cmax [1, 3]: 2480 ng/g
- half-life [1, 3]: 3.12 h
- Cmax [1, 4]: 512 ng/mL
- AUC ([1]; male, C57BL/6, mouse, IV 10 mg/kg, plasma, read-out: AUC (area under the concentration-time curve) (converted)): 1530 ng·h/mL
- Clearance ([1]; male, C57BL/6, mouse, IV 10 mg/kg, plasma, read-out: Clearance): 2.1 mL/min
- half-life [1, 4]: 1.52 h
- stability in vitro using hepatocyte S9 fractions ([2]; 2 μM, mouse CD-1 S9, 37° C.): relatively stable
- half-life at 2 μM ([2]; Phase I+II, read-out: half-life for in vitro combined Phase I+II metabolism in S9 fractions): 0.933 h
- half-life at 2 μM ([2]; Phase I, read-out: half-life for in vitro Phase I metabolism in S9 fractions): 1.13 h
- Ca2+ response (GRP receptor): no response
Structure (SMILES): Cc1ccc(Cn2c(=N)n(CC(O)c3ccc(Cl)c(Cl)c3)c3ccccc32)cc1 (stereo not drawn) [Compound 130699]
- acute reaction after injection ([1]; 20 mg/kg IV, first two mice): relatively severe reaction marked by a mild seizure and reduced activity for several hours
